According to publication PMC8333425, “Discovery of a dual Ras and ARF6 inhibitor from a GPCR endocytosis screen” (Nature Communications, 2021):
“And” between values parts separate entries of the source, which are not always exact repeats. Identical values can stand only once.

Assays:
[1] = system: ERK1/2 activation by AT1R; assay: Western blot of AT1R-mediated ERK1/2 activation in β-arrestin1/2 KO cells; format: cell-based, human; settings: for ERK1/2 activation by AT1R in β-arrestin1/2 KO cells: 50 μM
Experimental: HEK293SL cells (10^5 cells per well) were seeded in a poly-L-lysine-coated six-well plate and transiently transfected with 3 μg Flag-AT1R, HA-B2R or HA-β2AR and/or 500 ng Flag-MEK1-WT, Flag-MEK1-DD, Flag-BRAF-WT, Flag-BRAF-V600E, Flag-K-Ras-WT, Flag-K-Ras-G12V, HA-ARF6-WT, or HA-ARF6-T27N. Gαq/11 KO and βarr1/2 KO cells were seeded onto 100 mm dishes at a density of 10^6 cells per dish. Next day, cells were transfected with 3 μg AT1R alone or along with 500 ng of β-arrestin2 using PEI. After 18 h of transfection, cells were detached and re-seeded onto poly-L-lysine coated 12-well plates (~1.5–2 × 10^5cells/well) for subsequent experiments. Forty-eight hours post transfection, in a 37 °C water bath, cells were serum-starved for 30 min, pretreated with DMSO (0.1%) or compound 21/Rasarfin (50 µM or at indicated concentrations) for 30 min, then stimulated or not with the indicated ligand [AngII (1 µM), BK (1 µM), Iso (10 µM) or EGF (100 ng/ml)] at indicated times. Cells were put on ice, washed with PBS and solubilized in 2x laemmli buffer (250 mM Tris–HCl pH 6.8, 2% SDS (w/v), 10% glycerol (v/v), 0.01% bromophenol blue (w/v) and 5% β-mercaptoethanol (v/v)) by heating at 65 °C for 15 min. Lysates were resolved on 10 or 14% SDS-PAGE, transferred to nitrocellulose membranes and immunoblotted for p-ERK1/2, ERK1/2, p-Akt, Akt, HA, Myc, β-actin or FLAG. ImageLab 5.2 software was used to quantify the digital blots as fold of the phosphorylated protein over total protein, which were then normalized as indicated in the figure legends. Uncropped immunoblots are provided in the Source Data file.

[2] = system: Rho; assay: Rho BRET sensor (PKN-RBD-RlucII / rGFP-CAAX; Gα12/13), AT1R-mediated; format: cell-based, human
Experimental: HEK293SL cells were seeded at a density of 7.5 × 10^5 cells per 100-mm dish and 24 h later, transiently transfected as such. For receptor internalization experiments, cells were transfected with 0.12 μg AT1R-RlucII, B2R-RlucII, or β2AR-RlucII and 0.48 μg of either rGFP-CAAX (to assess removal from the PM) or rGFP-FYVE (to assess accumulation in the endosomes). For β-arrestin recruitment assays, cells were transfected with 0.48 μg of receptor-YFP along with 0.12 μg of β-arrestin-RlucII. For β-arrestin/AP-2 binding experiments, cells were transfected with 1 μg Flag-AT1R, 1 μg β2-Adaptin-YFP, and 0.12 μg β-arrestin2-RlucII. For G protein activation, cells were transfected with 3 μg of sp-Flag-AT1R along with either 4.5 μg of the Gαq-polycistronic BRET sensor or 0.24 μg of the Gαi3-RlucII and 0.6 μg of GFP10-Gγ2 and Gβ1 sensors or 0.12 μg PKN-RBD-RlucII and 0.48 μg of rGFP-CAAX. For PKC activation, cells were transfected with 3 μg of sp-Flag-AT1R and 0.18 μg of the PKC sensor. For GTPase activation experiments, cells were transfected with 1 μg Flag-AT1R, 0.48 μg of rGFP-CAAX, and either 0.12 μg of GGA3-PBD-RlucII, PAK-CRIB-RlucII or Raf-RBD-RlucII. For biosensor validation experiments, cells were additionally transfected with 500 ng Flag-K-Ras-WT, Flag-K-Ras-G12V, Flag-K-Ras-SOS-CAAX, HA-ARF6-WT, HA-ARF6-T27N, Myc-Rac1-WT, Myc-Rac1-Q61L or Myc-Rac1-T17N. For PI3K/Akt activation experiments, cells were transfected with 0.48 μg of rGFP-CAAX and 0.12 μg of Akt (PH)-RlucII. After 18 h of transfection, the media was replaced and cells were divided for subsequent experiments. Cells were detached and seeded onto poly-L-ornithine-coated 96-well flat white bottom plates (BrandTech Scientific) at a density of 2.5 × 10^4 cells per well in media. The next day, cells were washed once with Tyrode’s buffer (140 mM NaCl, 2.7 mM KCl, 1 mM CaCl2, 12 mM NaHCO3, 5.6 mM D-glucose, 0.5 mM MgCl2, 0.37 mM NaH2PO4, 25 mM HEPES, pH 7.4) and left in Tyrode’s buffer. For kinetics of β-arrestin recruitment or β-arrestin binding to receptor and AP-2 experiments, cells were serum starved for 30 min, pretreated with 21 (50 µM) or Barbadin (100 µM) for 30 min, stimulated with 100 nM AngII or 1 µM BK and BRET signals were monitored at indicated times using a Victor X Light plate reader (PerkinElmer). Coelenterazine H (final concentration of 5 µM) was added 3–5 min prior to BRET measurements. Filter set was 460/80 nm and 535/30 nm for detecting the RlucII Renilla luciferase (donor) and YFP (acceptor) light emissions, respectively. The BRET ratio was determined by calculating the ratio of the light emitted by YFP over the light emitted by the RlucII. For G protein activation, cells were serum starved, pretreated with compounds for 30 min, stimulated with 100 nM AngII for 2 min (Gαq, Gαi3, and Rho sensors) or 5 min (PKC sensor). For the kinetics of GTPase and PI3K/Akt activation, cells were serum starved, pretreated with 21 (50 µM) or Wortmannin (200 nM) for 30 min, stimulated with ligand (100 nM AngII or 100 ng/ml EGF) and BRET signals were monitored at indicated times. For concentration-response curves, cells were serum-starved, pretreated with various concentrations of compounds for 30 min and stimulated with ligand (100 nM AngII, 1 µM BK, 10 µM Isoproterenol (Iso) or 100 ng/ml EGF) in Tyrode’s buffer for 30 min for receptor internalization, 10 min for ARF6, 2 min for Rac and Rho activation and 5 min for Ras activation and PI3K/Akt activation. BRET signals were monitored using a Synergy2 (BioTek) microplate reader and coelenterazine 400a (final concentrations of 5 µM) added 3–5 min prior to BRET measurements. Filter set was 410/80 nm and 515/30 nm for detecting the RlucII Renilla luciferase (donor) and rGFP/GFP10 (acceptor) light emissions, respectively. The BRET ratio was determined by calculating the ratio of the light emitted by rGFP/GFP10 over the light emitted by the RlucII.

`CC(C)C(=O)N1CCN(c2ccc(NC(=O)c3cc4ccccc4o3)cc2Cl)CC1` [Compound 21] was tested, and the “ERK1/2 activation by AT1R in β-arrestin1/2 KO cells” value [1] was “similarly inhibited ERK1/2 activation”, the “ERK1/2 activation by AT1R in β-arrestin1/2 KO cells” value ([1]; listed as Rasarfin) was “totally blocked” and the “ERK1/2 activation relative to time 0 (S_Fig.4a)” value ([1]; barr1/2 KO cells, Time 0 min) was 1. The “Mean Diff. DMSO - Comp 21 (Bonferroni's multiple comparisons test)” value (“Mean Diff. DMSO” below) ([1]; barr1/2 KO cells, Time 0 min) was 0, the “Mean Diff. DMSO” value ([1]; barr1/2 KO cells, Time 5 min) was 8.446 and the “Mean Diff. DMSO” value ([1]; barr1/2 KO cells, Time 20 min) was 10.85. The “Gα12/13 engagement by AT1R (BRET sensor)” value ([2]; 50 μM) was “lack of inhibitory effects”, the “Rho MEAN (Fig.4d)” value ([2]; Log [Comp 21] (M) -4) was 111.903 and the “Rho MEAN (Fig.4d)” value ([2]; Log [Comp21] (M) -4.3) was 104.855. For the same compound, the “Rho MEAN (Fig.4d)” value ([2]; Log [Comp21] (M) -5) was 98.5192, the “Rho MEAN (Fig.4d)” value ([2]; Log [Comp21] (M) -5.3) was 89.4095 and the “Rho MEAN (Fig.4d)” value ([2]; Log [Comp 21] (M) -6) was 96.851. The “Rho MEAN (Fig.4d)” value ([2]; Log [Comp21] (M) -6.3) was 103.786, the “Rho MEAN (Fig.4d)” value ([2]; Log [Comp 21] (M) -7) was 100.394 and the “Rho BRET sensor signal (S_Fig.4b), single experiments” value ([2]; listed as Comp 21) was 0.2652 and 0.266 and 0.2953. For the same compound, the “AT1R-mediated activation of a Rho BRET sensor” value ([2]; up to 100 µM of 21) was “did not inhibit”.
